Measured values from patent US7829587B2, “Substituted 2-aminotetralin derivatives as selective alpha 2B agonist” (Allergan, Inc., priority 2008, dated 2010).

Tests used:
Assay type in all cases: cell-based
bovine α1A receptor = target: T1, bovine α1A receptor (Bos taurus, UniProt P18130); experiment: FLIPR Ca+2 influx assay, α1A; settings: relative efficacy compared to standard full agonist norepinephrine; HEK 293, bovine α1A
T1 construct: expressed in transfected cells; host or cells: HEK 293
T1 sequence (P18130 1-466): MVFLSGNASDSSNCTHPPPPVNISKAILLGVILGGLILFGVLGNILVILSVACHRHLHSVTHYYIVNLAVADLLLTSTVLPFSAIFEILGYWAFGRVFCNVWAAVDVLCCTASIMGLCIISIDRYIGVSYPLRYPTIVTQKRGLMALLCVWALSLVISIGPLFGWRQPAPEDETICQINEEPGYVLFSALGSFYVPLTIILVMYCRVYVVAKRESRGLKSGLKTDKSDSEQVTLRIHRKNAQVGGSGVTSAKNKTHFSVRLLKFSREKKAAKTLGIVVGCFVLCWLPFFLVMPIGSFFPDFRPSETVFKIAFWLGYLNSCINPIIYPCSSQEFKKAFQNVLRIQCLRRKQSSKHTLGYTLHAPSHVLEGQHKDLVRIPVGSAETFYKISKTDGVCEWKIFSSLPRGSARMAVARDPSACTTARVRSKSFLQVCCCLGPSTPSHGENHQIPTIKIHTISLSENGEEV
Protocol: (§1) The compounds disclosed herein are agonists of alpha 2B/2C adrenergic receptors. […] This assay is adequate for monitoring the intracellular Ca^2+ mobilization from fluorescent reading to evaluate receptor agonists.
(§2) FLIPR Ca+2 Influx Assay: HEK 293 cells stably expressing the bovine α1A receptor, the rat α1B receptor, the human α2A receptor and the chimeric G protein Gqi5, the human α2C receptor and the chimeric G protein Gqi5 and the mouse α2B receptor and the Gα16 protein were plated in poly-D-lysine coated 384 well plates at 15,000-25,000 cells per well and grown overnight in DMEM supplemented with 10% fetal bovine serum. For FLIPR (fluorometric image plate reader) evaluation, cells were washed 2-4 times with HBSS/HEPES Buffer (1× Hanks Buffered Salt Solution, 20 mM HEPES<pH 7.4) prior to the addition of Fluo-4-AM (4 uM Fluo-4-AM, 0.04% pluronic acid in HBSS/HEPES Buffer), a calcium-sensitive dye. Cells were loaded with Dye for 40 minutes at 30° C., then washed 4-8 times with HBSS/HEPES Buffer to remove excess dye. Cells were preincubated at 37° C. for 3 minutes prior to placement into the FLIPR instrument. The reaction was carried out at 37° C. and was initiated by the addition of the appropriate dilutions of compounds. The transient calcium was captured and the peak height of the calcium curve determined and utilized for calculation of EC50 and efficacy using ActivityBase. Data is stored in the ActivityBase database under the unique identifier “Test Occasion”, which reflects the results of an assay run on a particular date and the individual responsible for the assay. Norepinephrine was the standard full agonist for evaluating alpha1 and alpha2 receptor activity.

human α2C receptor = target: T2, human α2C receptor (Homo sapiens, UniProt P18825); experiment: FLIPR Ca+2 influx assay, α2C
T2 construct: expressed in transfected cells; host or cells: HEK 293
T2 sequence (P18825 1-462): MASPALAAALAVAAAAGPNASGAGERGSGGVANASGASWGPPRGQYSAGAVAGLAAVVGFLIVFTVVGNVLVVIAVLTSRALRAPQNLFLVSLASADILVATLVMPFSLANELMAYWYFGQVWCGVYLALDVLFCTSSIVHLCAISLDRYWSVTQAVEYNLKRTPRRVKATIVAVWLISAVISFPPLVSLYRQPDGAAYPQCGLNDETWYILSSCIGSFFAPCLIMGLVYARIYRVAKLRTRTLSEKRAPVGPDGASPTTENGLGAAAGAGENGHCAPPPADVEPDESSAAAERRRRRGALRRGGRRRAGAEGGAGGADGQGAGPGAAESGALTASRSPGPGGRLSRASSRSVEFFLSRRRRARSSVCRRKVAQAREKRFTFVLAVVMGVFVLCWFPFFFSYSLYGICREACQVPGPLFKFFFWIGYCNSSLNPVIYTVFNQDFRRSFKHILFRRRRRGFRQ
Protocol: as §1, §2

human α2A receptor = target: T3, human α2A receptor (Homo sapiens, UniProt P08913); experiment: FLIPR Ca+2 influx assay, α2A
T3 construct: expressed in transfected cells; host or cells: HEK 293
T3 sequence (P08913 1-465): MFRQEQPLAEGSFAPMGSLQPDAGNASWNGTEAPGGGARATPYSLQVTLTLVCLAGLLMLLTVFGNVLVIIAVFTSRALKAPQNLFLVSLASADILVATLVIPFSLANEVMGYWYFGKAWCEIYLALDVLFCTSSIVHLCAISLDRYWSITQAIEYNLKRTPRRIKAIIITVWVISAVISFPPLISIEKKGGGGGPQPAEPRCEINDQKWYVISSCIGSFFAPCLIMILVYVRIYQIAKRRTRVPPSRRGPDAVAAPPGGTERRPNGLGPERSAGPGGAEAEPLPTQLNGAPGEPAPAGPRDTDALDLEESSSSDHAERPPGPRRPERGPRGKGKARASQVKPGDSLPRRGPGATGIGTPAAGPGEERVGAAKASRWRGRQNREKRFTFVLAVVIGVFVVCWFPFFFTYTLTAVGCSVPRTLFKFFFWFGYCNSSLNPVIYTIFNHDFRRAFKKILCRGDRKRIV
Protocol: as §1, §2

mouse α2B receptor = target: T4, mouse α2B receptor (Mus musculus, UniProt P30545); experiment: FLIPR Ca+2 influx assay, α2B
T4 construct: expressed in transfected cells; host or cells: HEK 293
T4 sequence (P30545 1-453): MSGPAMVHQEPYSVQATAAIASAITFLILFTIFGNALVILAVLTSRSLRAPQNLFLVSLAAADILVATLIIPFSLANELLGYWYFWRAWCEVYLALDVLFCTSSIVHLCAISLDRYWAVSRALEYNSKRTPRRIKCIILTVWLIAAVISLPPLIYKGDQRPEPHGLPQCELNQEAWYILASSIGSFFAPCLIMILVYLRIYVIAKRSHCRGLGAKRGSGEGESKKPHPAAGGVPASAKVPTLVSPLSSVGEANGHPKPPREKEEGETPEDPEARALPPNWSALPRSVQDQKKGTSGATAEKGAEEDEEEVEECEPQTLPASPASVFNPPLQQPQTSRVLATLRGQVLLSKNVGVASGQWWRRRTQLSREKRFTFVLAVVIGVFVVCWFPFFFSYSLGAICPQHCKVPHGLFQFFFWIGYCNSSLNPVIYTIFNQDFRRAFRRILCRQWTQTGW
Protocol: as §1, §2

rat α1B receptor = target: T5, rat α1B receptor (Rattus norvegicus, UniProt P15823); experiment: FLIPR Ca+2 influx assay, α1B
T5 construct: expressed in transfected cells; host or cells: HEK 293
T5 sequence (P15823 1-515): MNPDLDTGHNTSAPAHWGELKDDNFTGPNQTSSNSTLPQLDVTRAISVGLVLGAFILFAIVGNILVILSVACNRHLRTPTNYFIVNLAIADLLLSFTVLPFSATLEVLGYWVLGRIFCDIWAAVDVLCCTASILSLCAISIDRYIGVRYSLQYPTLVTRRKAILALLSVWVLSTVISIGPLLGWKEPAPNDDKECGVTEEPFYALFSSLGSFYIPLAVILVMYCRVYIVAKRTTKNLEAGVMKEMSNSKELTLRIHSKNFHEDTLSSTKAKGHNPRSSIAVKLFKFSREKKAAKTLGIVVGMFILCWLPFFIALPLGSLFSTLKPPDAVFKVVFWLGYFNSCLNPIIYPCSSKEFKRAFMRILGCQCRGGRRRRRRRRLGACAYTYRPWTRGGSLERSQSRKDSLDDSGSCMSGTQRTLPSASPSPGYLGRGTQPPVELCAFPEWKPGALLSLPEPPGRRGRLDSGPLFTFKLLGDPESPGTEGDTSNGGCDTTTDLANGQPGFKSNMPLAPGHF
Protocol: as §1, §2

Relative efficacy FLIPR α1A (bovine α1A receptor): ND (0.05)
EC50 (human α2C receptor; HEK 293 cells stably expressing human α2C receptor and chimeric G protein Gqi5): > 10 µM
Relative efficacy FLIPR α2C (human α2C receptor; relative efficacy compared to standard full agonist norepinephrine, HEK 293, human α2C/Gqi5): 0
EC50 (human α2A receptor; HEK 293 cells stably expressing human α2A receptor and chimeric G protein Gqi5): > 10 µM
Relative efficacy FLIPR α2A (human α2A receptor; relative efficacy compared to standard full agonist norepinephrine, HEK 293, human α2A/Gqi5): 0
EC50 (mouse α2B receptor; HEK 293 cells stably expressing mouse α2B receptor and Gα16 protein): 0.033 µM
Relative efficacy FLIPR α2B (mouse α2B receptor; relative efficacy compared to standard full agonist norepinephrine, HEK 293, mouse α2B/Gα16): 0.95
EC50 (rat α1B receptor; HEK 293 cells stably expressing rat α1B receptor): > 10 µM
Relative efficacy FLIPR α1B (rat α1B receptor; relative efficacy compared to standard full agonist norepinephrine, HEK 293, rat α1B): 0
SMILES: CCCN(Cc1ccccn1)C1CCc2cccc(O)c2C1 (stereo not drawn) [drawing 21]
